In patent US11213517B2, “Pharmaceutical combination comprising a T-type calcium channel blocker” (IDORSIA PHARMACEUTICALS LTD, priority 2016, dated 2022):
Several values for one entry are separate records, joined by “and”; a condition that tells them apart may be missing. Identical values can stand only once. Like-named read-outs stand apart in the source and are kept apart here.

Tests used:
[1] = test system: audiogenic seizure-sensitive juvenile DBA/2J mice; test: Audiogenic seizure-sensitive juvenile DBA/2J mouse model of generalized tonic-clonic seizures; format: in vivo; set-up: key: 0 none, 1 wild running, 2 clonus, 3 hind-limb tonic extension; conditions: oral gavage, mean ± SEM
Excerpt: Audiogenic Seizure-Sensitive Juvenile DBA/2J Mouse Model of Generalized Tonic-Clonic Seizures
The inbred DBA/2J mouse strain carries an increased general susceptibility for acute generalized convulsive seizures induced by either pharmacological, electrical or, as juvenile, auditory stimuli. At the age of 17 to 28 days (juvenile), they show tonic-clonic convulsions when exposed to a loud tone.
Male juvenile DBA/2J mice (22-24 days old, body weight between 6.6 and 14.5 grams) were used. Each mouse was placed individually in the exposure chamber, an hemispheric acrylic glass dome (diameter: 50 cm) within a sound-attenuated box. After 60 seconds of habituation, an auditory stimulus of mixed frequency tone (15-20 kHz at 110 dB) was played from a speaker placed on the top center of the dome.
The sound-attenuated box was equipped with lights and a camera system in order to observe and record the behavioral seizure response classified as following: • stage 0, no response • stage 1, wild running • stage 2, clonus • stage 3, tonic extension of the hind limbs.
(§1) Different combination efficacy experiments are performed. […] Each experiment consists of four treatment groups: • 1. Vehicle (10% Polyethylene glycol400 (PEG400)/90% methylcellulose (0.5% in water; MC0.5%)), 3 h before exposure to the auditory stimulus+vehicle, 1 h before exposure to the auditory stimulus; • 2. COMPOUND 1 (in 10% PEG400/90% MC0.5%), 3 h before exposure to the auditory stimulus+vehicle, 1 h before exposure to the auditory stimulus; • 3. Vehicle, 3 h before exposure to the auditory stimulus+AED (in 10% PEG400/90% MC0.5%), 1 h before exposure to the auditory stimulus; and • 4. COMPOUND 1 (in 10% PEG400/90% MC0.5%), 3 h before exposure to the auditory stimulus+AED (in 10% PEG400/90% MC0.5%), 1 h before exposure to the auditory stimulus.

[2] = Plasma and brain concentrations of drugs at the end of the audiogenic seizure experiment (LC-MS); format: in vivo, mouse; conditions: for concentration at 1 h: DBA/2J, mouse, oral; for concentration at 1 h / Brain concentration total: analyte VPA, oral gavage, mean ± SEM
Description: Briefly, blood was sampled from the vena cava caudalis with a syringe pre-filled with EDTA (ethylenediamine tetraacetic acid) as anticoagulant and centrifuged to yield plasma (for 10 minutes, at 4° C. and 5000 rpm (rounds per minute)). Brain was sampled and homogenized into one volume of cold phosphate buffer (pH 7.4). Following extraction with methanol, concentrations of the compound in plasma and brain were determined using liquid chromatography coupled to mass spectrometry.
as §1

[3] = vehicle 3 h + VPA 100 mg/kg 1 h before stimulus

SMILES: CCCC(CCC)C(=O)O [VPA, 2-propylpentanoic acid]
- Seizure stage (maximal seizure stage observed during exposure to auditory stimulus) ([1]; vehicle 3 h + VPA 30 mg/kg 1 h before stimulus): 2.9 ± 0.1
- Seizure stage (maximal seizure stage observed during exposure to auditory stimulus) [1, 3]: 2.7 ± 0.2 and 2.8 ± 0.2
- Seizure stage (maximal seizure stage observed during exposure to auditory stimulus) ([1]; vehicle 3 h + VPA 100 mg/kg 1 h before stimulus, listed as valproic acid): 3
- plasma and brain concentrations after administration of the compounds alone or in combination ([2]; COMPOUND 1 and valproic acid, juvenile DBA/2J mice): similar
- concentration at 1 h ([2]; brain, 30 mg/kg, vehicle 3 h + VPA 30 mg/kg 1 h before stimulus, read-out: Brain concentration total): 1260 ± 399 ng/g
- concentration at 1 h ([2]; brain, 100 mg/kg, vehicle 3 h + VPA 100 mg/kg 1 h before stimulus, read-out: Brain concentration total): 10100 ± 2040 ng/g
- concentration at 1 h ([2]; brain, 200 mg/kg, vehicle 3 h + VPA 200 mg/kg 1 h before stimulus, read-out: Brain concentration total): 44200 ± 4090 ng/g
- concentration at 1 h ([2]; brain, COMPOUND 1 10 mg/kg 3 h + VPA 100 mg/kg 1 h before stimulus, read-out: Brain concentration total): 14600 ± 2910 ng/g
- concentration at 1 h ([2]; brain, COMPOUND 1 10 mg/kg 3 h + VPA 200 mg/kg 1 h before stimulus, read-out: Brain concentration total): 34700 ± 4440 ng/g
- concentration at 1 h ([2]; brain, COMPOUND 1 30 mg/kg 3 h + VPA 30 mg/kg 1 h before stimulus, read-out: Brain concentration total): 1010 ± 117 ng/g
- concentration at 1 h ([2]; brain, COMPOUND 1 30 mg/kg 3 h + VPA 100 mg/kg 1 h before stimulus, read-out: Brain concentration total): 5950 ± 946 ng/g
- concentration at 1 h ([2]; brain, COMPOUND 1 30 mg/kg 3 h + VPA 200 mg/kg 1 h before stimulus, read-out: Brain concentration total): 27000 ± 6540 ng/g
- concentration at 1 h ([2]; plasma, 30 mg/kg, vehicle 3 h + VPA 30 mg/kg 1 h before stimulus, read-out: Plasma concentration total): 23 ± 3.61 µg/mL
- concentration at 1 h ([2]; plasma, 100 mg/kg, vehicle 3 h + VPA 100 mg/kg 1 h before stimulus, read-out: Plasma concentration total): 53.7 ± 4.04 µg/mL
- concentration at 1 h ([2]; plasma, 200 mg/kg, vehicle 3 h + VPA 200 mg/kg 1 h before stimulus, read-out: Plasma concentration total): 133 ± 10.7 µg/mL
- concentration at 1 h ([2]; plasma, COMPOUND 1 10 mg/kg 3 h + VPA 100 mg/kg 1 h before stimulus, read-out: Plasma concentration total): 57.3 ± 3.76 µg/mL
- concentration at 1 h ([2]; plasma, COMPOUND 1 10 mg/kg 3 h + VPA 200 mg/kg 1 h before stimulus, read-out: Plasma concentration total): 123 ± 11.7 µg/mL
- concentration at 1 h ([2]; plasma, COMPOUND 1 30 mg/kg 3 h + VPA 30 mg/kg 1 h before stimulus, read-out: Plasma concentration total): 19.9 ± 1.65 µg/mL
- concentration at 1 h ([2]; plasma, COMPOUND 1 30 mg/kg 3 h + VPA 100 mg/kg 1 h before stimulus, read-out: Plasma concentration total): 63.4 ± 3.21 µg/mL
- concentration at 1 h ([2]; plasma, COMPOUND 1 30 mg/kg 3 h + VPA 200 mg/kg 1 h before stimulus, read-out: Plasma concentration total): 110 ± 11.4 µg/mL
- Brain concentration total [2, 3]: 9278 ± 2535 ng/g
- Brain concentration total ([2]; vehicle 3 h + VPA 200 mg/kg 1 h before stimulus): 24746 ± 3564 ng/g
